From patent US20070004036A1, “Methods and compositions for keratinocyte culture” (priority 2005, published 2007)

Tested on: Human dermal adult and newborn skin fibroblasts
Assay: Fibroblast proliferation in SFM and serum-containing media
Type: cell-based
Settings: primary and secondary culture, FIG. 5
Procedure: Human dermal adult and newborn skin fibroblasts were cultured in a SFM and serum-containing media (DMEM 5% FBS). Collagenase (1 μg/ml) was added to the DMEM serum free media (SFM) and tested on primary and secondary culture of human adult and newborn fibroblasts. In both cases (SFM and DMEM 5%) Collagenase increase cell proliferation up to 2-2.5 fold over the controls.

Collagenase
increase in cell proliferation over the controls (DMEM 5% FBS): 2-2.5 fold
increase in cell proliferation over the controls (SFM, collagenase 1 μg/ml): 2-2.5 fold
